# ± gives the standard deviation of the averaged measurements.
# Test system: HepaRG
# Assay: LDH release cytotoxicity, % of total lysis control; higher = more cytotoxic
# Settings: 48 h
# In short: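 Single-lot HepaRG cells in collagen I-coated 96-well plates were treated for 48 h in serum-free induction medium containing 0.5% DMSO with test chemicals in eight-point half-log series up to 100 µM. For total lysis, wells received 0.1% Triton X. LDH in 50 µL spent medium was assayed by resorufin fluorescence with CytoTox-ONE. Percent cytotoxicity was normalized to the on-plate vehicle and total lysis controls, with duplicates averaged.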
Structure (SMILES),LDH release cytotoxicity (0.03162 µM) [%],LDH release cytotoxicity (0.1 µM) [%],LDH release cytotoxicity (0.3162278 µM) [%],LDH release cytotoxicity (1 µM) [%],LDH release cytotoxicity (3.16228 µM) [%],LDH release cytotoxicity (10 µM) [%],LDH release cytotoxicity (31.6228 µM) [%],LDH release cytotoxicity (100 µM) [%],further results
COP(=O)(OC)OC(Br)C(Cl)(Cl)Br (configuration not stated) [Naled],-2.18 ± 0.54,-1.58 ± 0.07,-1.53 ± 0.67,-2.25 ± 0.69,-0.95 ± 0.64,-1.19 ± 0.38,-0.943 ± 0.2,-0.896 ± 0.77,
CCCC1=NC(=S)NC(=O)C1 [6-Propyl-2-thiouracil],-1.25 ± 0.13,-1.68 ± 0.29,-2.72 ± 0.31,-2.49 ± 0.1,-2.28 ± 0.038,-1.9 ± 0.03,-1.25 ± 0.71,0.0182 ± 1.5,
CCN(CC)c1nc(C)cc(OP(=S)(OC)OC)n1 [Pirimiphos-methyl],0.287 ± 2,-1.19 ± 1.6,-1.08 ± 0.22,-0.906 ± 0.67,-1.49 ± 0.077,-0.783 ± 0.59,-1.01 ± 0.3,-1.29 ± 0.47,
CN(C)C(=O)Nc1ccc(Cl)c(Cl)c1 [Diuron],,,,,,,,,LDH release cytotoxicity (0.0314647 µM): -0.32 ± 1.2%; LDH release cytotoxicity (0.0995 µM): -1.23 ± 1.5%; LDH release cytotoxicity (0.3146466 µM): -1.57 ± 0.64%; LDH release cytotoxicity (0.995 µM): -0.727 ± 0.72%; LDH release cytotoxicity (3.14647 µM): -1.47 ± 0.9%; LDH release cytotoxicity (9.95 µM): -1.77 ± 0.071%; LDH release cytotoxicity (31.4647 µM): -0.974 ± 0.13%; LDH release cytotoxicity (99.5 µM): 19 ± 4.1%
O=C(O)CCCCC(=O)O [Hexanedioic acid],-0.567 ± 0.22,-0.838 ± 0.079,-1.43 ± 1.4,-1.17 ± 0.34,-1.55 ± 0.028,-0.895 ± 0.82,-1.25 ± 0.29,0.446 ± 0.27,
CSC(=O)c1cccc2nnsc12 [Acibenzolar-S-methyl],-0.11 ± 0.5,-0.574 ± 0.66,-0.682 ± 0.56,-0.324 ± 0.3,-0.302 ± 0.16,-0.414 ± 0.83,0.737 ± 0.21,1.4 ± 0.15,
CCc1nn(C)c(C(=O)NCc2ccc(C(C)(C)C)cc2)c1Cl [Tebufenpyrad],-1.57 ± 0.17,-1.25 ± 0.71,-2.38 ± 0.55,5.74 ± 2.5,10.5 ± 1.9,15.5 ± 3.4,23.2 ± 2.7,49.6 ± 7.2,
CCCOC(=O)c1ccc(O)cc1 [Propylparaben],-0.197 ± 0.47,-0.55 ± 1.1,-0.664 ± 0.59,-0.711 ± 0.26,-0.982 ± 0.64,-0.514 ± 0.63,-0.541 ± 0.47,0.018 ± 1.1,
COc1ccc2sc(C(=O)Nc3nnn[nH]3)c(OC(C)C)c2c1 [CI-959],-0.617 ± 0.98,-2.08 ± 0.33,-1.65 ± 0.028,-1.45 ± 0.29,-2.51 ± 0.029,-2.33 ± 0.67,3.57 ± 1.1,9.3 ± 1.3,
CCN(CC)CCNc1ccc(CNC=O)c2sc3ccc(OC)cc3c(=O)c12,-0.844 ± 1.3,-1.66 ± 0.14,-0.986 ± 0.35,-1.41 ± 0.78,1.37 ± 0.86,2.31 ± 0.54,5.144 ± 0.031,81.1 ± 6.4,
O=C1OC(c2ccc(O)cc2)(c2ccc(O)cc2)c2ccccc21 [Phenolphthalein],-0.731 ± 0.29,-1.59 ± 0.42,-0.412 ± 1,-1.68 ± 1,-0.391 ± 0.89,0.41 ± 0.52,0.57 ± 0.34,10.5 ± 2,
C#CCOS(=O)OC1CCCCC1Oc1ccc(C(C)(C)C)cc1 (configuration not stated) [Propargite],-0.16 ± 0.35,-0.456 ± 1.3,-0.537 ± 0.23,0.246 ± 0.3,-0.49 ± 0.87,-0.575 ± 0.68,62.8 ± 4,83.83 ± 0.65,
"CCc1cccc(CC)c1N [2,6-Diethylaniline]",-1.27 ± 1.1,-2.24 ± 0.81,-1.42 ± 0.19,-0.395 ± 0.46,-0.592 ± 0.21,-1.25 ± 1.1,-0.819 ± 0.47,-0.482 ± 0.8,
CCOc1cc(Oc2ccc(C(F)(F)F)cc2Cl)ccc1[N+](=O)[O-] [Oxyfluorfen],-0.516 ± 0.33,0.229 ± 1.1,-0.848 ± 0.08,-0.859 ± 0.59,-0.159 ± 0.1,-0.932 ± 0.39,-2.53 ± 0.26,-1.47 ± 0.42,
NC(=O)Cn1c(=O)cc(CCN2CCN(c3nccc4sccc34)CC2)c2ccc(F)cc21 [Trelanserin],-2.76 ± 0.59,-2.72 ± 0.22,-2.6 ± 0.45,-2.79 ± 0.15,-2.49 ± 0.9,-3.23 ± 0.63,-3.19 ± 0.31,4.59 ± 0.19,
"Clc1ccc(Cl)c(Cl)c1 [1,2,4-Trichlorobenzene]",-0.83 ± 0.22,-0.799 ± 0.65,-1.05 ± 0.33,-0.848 ± 0.19,-1.46 ± 0.75,-0.626 ± 0.011,-0.776 ± 0.65,-0.785 ± 0.46,
CCOc1nc(F)cc2nc(S(=O)(=O)Nc3c(Cl)cccc3Cl)nn12 [Diclosulam],,,,,,,,,LDH release cytotoxicity (0.01581 µM): -5.4 ± 0.3%; LDH release cytotoxicity (0.05 µM): -5.8 ± 0.38%; LDH release cytotoxicity (0.1581139 µM): -6.31 ± 0.31%; LDH release cytotoxicity (0.5 µM): -6.08 ± 0.24%; LDH release cytotoxicity (1.5811388 µM): -6.09 ± 0.25%; LDH release cytotoxicity (5 µM): -5.21 ± 0.053%; LDH release cytotoxicity (15.8114 µM): -4.75 ± 0.14%; LDH release cytotoxicity (50 µM): -3.63 ± 0.7%
"O=c1c(-c2ccc(O)cc2)coc2cc(O)ccc12 [7,4'-Dihydroxyisoflavone]",-1.77 ± 0.55,-1.95 ± 0.049,-1.45 ± 0.29,-2.21 ± 0.22,-1.87 ± 0.47,-0.343 ± 0.097,-0.854 ± 0.4,0.307 ± 0.89,
CNC1CCC(c2ccc(Cl)c(Cl)c2)c2ccc(S(N)(=O)=O)cc21 (configuration not stated),-1.64 ± 0.43,-2.15 ± 0.55,-1.81 ± 0.055,-1.88 ± 0.57,-1.12 ± 0.32,-0.337 ± 0.06,15 ± 0.65,81.4 ± 3.4,
